Measured values as given in ChEMBL document CHEMBL1148125, “Total synthesis and bioactivity of some naturally occurring pterulones” (2002).

Experiments:
Type in all cases: functional
Saccharomyces cerevisiae [1] = assay: Antimicrobial activity against Saccharomyces cerevisiae CBS 1394 assessed as relative growth at 100 ug/mL after 24 to 48 hrs relative to control
Saccharomyces cerevisiae [2] = assay: Antimicrobial activity against Saccharomyces cerevisiae CBS 1394 assessed as relative growth at 50 ug/mL after 24 to 48 hrs relative to control
Rhodotorula glutinis [3] = assay: Antimicrobial activity against Rhodotorula glutinis ATCC 201718 assessed as relative growth at 100 ug/mL after 24 to 48 hrs relative to control
Rhodotorula glutinis [4] = assay: Antimicrobial activity against Rhodotorula glutinis ATCC 201718 assessed as relative growth at 50 ug/mL after 24 to 48 hrs relative to control

CC(=O)c1ccc2c(c1)C=C/C(=C/Cl)CO2
Activity (Saccharomyces cerevisiae [1]): 84% | Activity (Saccharomyces cerevisiae [2]): 91% | Activity (Rhodotorula glutinis [3]): 40% | Activity (Rhodotorula glutinis [4]): 58%

O=Cc1ccc2c(c1)C=C/C(=C/Cl)CO2
Activity (Saccharomyces cerevisiae [1]): 87% | Activity (Saccharomyces cerevisiae [2]): 91% | Activity (Rhodotorula glutinis [3]): 65% | Activity (Rhodotorula glutinis [4]): 96%

OCc1ccc2c(c1)C=C/C(=C/Cl)CO2
Activity (Saccharomyces cerevisiae [1]): 1% | Activity (Saccharomyces cerevisiae [2]): 89% | Activity (Rhodotorula glutinis [3]): <1% | Activity (Rhodotorula glutinis [4]): 5.5%
